Measurements published in ChEMBL document CHEMBL1158267, “Lycaconitine revisited: partial synthesis and neuronal nicotinic acetylcholine receptor affinities” (J Nat Prod, 1996).

Columns and labels:
[1] = Toxicity in iv dosed mouse; format: organism-based; details: in vivo
[2] = target: Neuronal acetylcholine receptor subunit alpha-7 (Rattus norvegicus, UniProt Q05941); assay: Displacement of [125I]alpha-bungarotoxin from alpha7 nAChR in rat brain membrane; format: cell membranes
[3] = target: Neuronal acetylcholine receptor; alpha4/beta2 (Rattus norvegicus, UniProt P09483+P12390); assay: Displacement of [3H]cytisine from alpha4beta2 nAChR in rat brain membrane; format: cell membranes
Chain of Neuronal acetylcholine receptor; alpha4/beta2 (P09483 whole entry): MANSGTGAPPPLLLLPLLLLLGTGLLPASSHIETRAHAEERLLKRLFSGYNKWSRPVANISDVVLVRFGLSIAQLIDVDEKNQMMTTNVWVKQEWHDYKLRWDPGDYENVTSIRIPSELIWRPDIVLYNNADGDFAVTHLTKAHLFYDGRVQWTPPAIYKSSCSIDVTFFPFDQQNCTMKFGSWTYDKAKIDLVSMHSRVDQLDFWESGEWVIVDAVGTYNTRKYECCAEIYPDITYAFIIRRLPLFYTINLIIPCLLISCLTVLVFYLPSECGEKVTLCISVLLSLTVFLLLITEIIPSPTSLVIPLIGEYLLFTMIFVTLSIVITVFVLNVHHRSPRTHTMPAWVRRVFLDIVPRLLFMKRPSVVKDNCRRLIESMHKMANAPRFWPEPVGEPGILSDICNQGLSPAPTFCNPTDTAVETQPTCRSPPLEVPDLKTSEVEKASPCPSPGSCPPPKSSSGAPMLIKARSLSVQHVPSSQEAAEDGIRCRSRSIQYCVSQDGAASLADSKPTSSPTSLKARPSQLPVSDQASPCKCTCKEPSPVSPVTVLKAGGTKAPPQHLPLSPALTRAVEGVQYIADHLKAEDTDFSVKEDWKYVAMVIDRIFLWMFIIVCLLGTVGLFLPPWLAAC
Chain of Neuronal acetylcholine receptor; alpha4/beta2 (P12390 whole entry): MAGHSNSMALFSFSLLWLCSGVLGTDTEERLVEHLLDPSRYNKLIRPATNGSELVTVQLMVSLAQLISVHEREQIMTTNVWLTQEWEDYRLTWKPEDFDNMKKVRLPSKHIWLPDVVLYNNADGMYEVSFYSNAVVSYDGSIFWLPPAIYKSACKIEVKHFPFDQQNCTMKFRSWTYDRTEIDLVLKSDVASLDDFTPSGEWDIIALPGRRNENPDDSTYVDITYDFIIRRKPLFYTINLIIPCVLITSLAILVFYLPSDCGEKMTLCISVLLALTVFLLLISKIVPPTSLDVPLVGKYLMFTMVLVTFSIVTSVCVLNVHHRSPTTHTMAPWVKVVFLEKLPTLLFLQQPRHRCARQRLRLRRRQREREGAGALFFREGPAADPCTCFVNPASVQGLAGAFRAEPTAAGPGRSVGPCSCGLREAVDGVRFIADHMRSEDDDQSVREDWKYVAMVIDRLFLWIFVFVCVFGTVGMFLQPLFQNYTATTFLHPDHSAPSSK

Chain of Neuronal acetylcholine receptor subunit alpha-7 (Q05941 whole entry): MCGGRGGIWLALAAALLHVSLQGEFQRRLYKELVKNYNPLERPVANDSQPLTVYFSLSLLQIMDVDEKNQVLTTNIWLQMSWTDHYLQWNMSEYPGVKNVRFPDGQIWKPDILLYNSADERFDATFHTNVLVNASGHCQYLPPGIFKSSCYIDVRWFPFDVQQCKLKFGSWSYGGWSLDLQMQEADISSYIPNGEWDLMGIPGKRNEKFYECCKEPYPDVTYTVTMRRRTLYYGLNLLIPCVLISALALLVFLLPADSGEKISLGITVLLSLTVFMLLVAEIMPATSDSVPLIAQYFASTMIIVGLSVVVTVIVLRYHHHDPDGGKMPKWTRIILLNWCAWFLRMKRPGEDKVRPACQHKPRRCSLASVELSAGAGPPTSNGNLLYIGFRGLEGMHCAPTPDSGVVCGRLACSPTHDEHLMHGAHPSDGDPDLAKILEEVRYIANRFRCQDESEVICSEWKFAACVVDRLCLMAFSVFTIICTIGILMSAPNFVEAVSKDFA

Q: For `CCN1C[C@]2(COC(=O)c3ccccc3N3C(=O)C[C@H](C)C3=O)CC[C@H](OC)[C@@]34[C@@H]5C[C@H]6[C@H](OC)[C@@H]5[C@](O)(C[C@@H]6OC)[C@](O)([C@@H](OC)[C@H]23)[C@@H]14` [METHYLLYCACONITINE], which LD50 [1] is on record?
A: 3 mg/kg

Q: With `CCN1C[C@]2(COC(=O)c3ccccc3N3C(=O)CCC3=O)CC[C@H](OC)[C@]34C1[C@](O)([C@@H](OC)[C@H]23)[C@@]1(O)C[C@H](OC)[C@H]2C[C@@H]4[C@@H]1[C@H]2OC` [LYCACONITINE] as the compound, how does the LD50 [1] read?
A: 15 mg/kg

Q: What about the Ki [2] of the same compound?
A: 80 nM

Q: And the Ki [3]?
A: 1000 nM
